Data on ten compounds can be found in ChEMBL document CHEMBL1201862, “PubChem BioAssay data set” (2004).

Test systems include ACHN; BT-549; HCC 2998; HCT-116; HCT-15; HT-29; IGROV-1; MDA-MB-435; Malme-3M; NCI-H522; NCI/ADR-RES; RPMI-8226; RXF 393; SF-539; SK-MEL-28; SK-MEL-5; SNB-75; T47D; U-251; UACC-257.
Common to all, as to assay: growth of human tumour cells (NCI), 48 h

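Five compound concentrations were applied to cells in 96-well plates for 48 hours; endpoints were derived by simple linear interpolation of the resulting dose-response curve. At the GI50, growth is halved.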 Calls of active or inactive are those of the source. Cut-off read from the data, not from the text of the source: active = GI50 up to about 1.1 µM and inactive = higher.

`O=c1oc2ccccc2cc1-c1cn2ccccc2n1`: the GI50 was 3.49 µM (inactive) in the experiment on ACHN; 11.9 µM (inactive) with BT-549; 20.1 µM (inactive) with HCC 2998; 10.1 µM (inactive) with HCT-116; 16.7 µM with HCT-15; 12.6 µM (inactive) with HT-29. Also, the GI50 in the experiment on IGROV-1 is 7.05 µM (inactive); in the experiment on MDA-MB-435, 4.1 µM (inactive); in the experiment with Malme-3M, 3.22 µM (inactive); with NCI-H522, 3.31 µM (inactive); in the experiment on NCI/ADR-RES, 3.15 µM (inactive); with RPMI-8226, 10.4 µM (inactive). The GI50 was 3.85 µM (inactive) in the experiment on RXF 393; 4.17 µM (inactive) with SF-539; 4.4 µM (inactive) in the experiment on SK-MEL-28; 6.18 µM (inactive) in the experiment with SK-MEL-5; 2.47 µM (inactive) with SNB-75; 14.6 µM (inactive) with T47D. Moreover, the GI50 with U-251 is 2.33 µM (inactive); in the experiment with UACC-257, 3.89 µM (inactive).

Turning to `CC(CC(=O)O)(CC(=O)O)C(=O)O`, the GI50 was > 100 µM (inactive) in the experiment on ACHN; > 100 µM (inactive) with BT-549; > 100 µM (inactive) with HCC 2998; > 100 µM (inactive) in the experiment on HCT-116; greater than 100 µM in the experiment on HCT-15; > 100 µM (inactive) with HT-29. Besides, the GI50 in the experiment on IGROV-1, in the experiment with MDA-MB-435, in the experiment with Malme-3M, in the experiment with NCI-H522, with NCI/ADR-RES and in the experiment with RPMI-8226 was > 100 µM (inactive) in each case. Besides, the GI50 in the experiment on RXF 393, in the experiment on SF-539, in the experiment on SK-MEL-28, with SK-MEL-5, in the experiment on SNB-75 and with T47D was > 100 µM (inactive) throughout. Also, the GI50 in the experiment with U-251 and in the experiment with UACC-257 was > 100 µM (inactive) throughout.

Consider `C=CCCCCCCCCCOC1C=CC(O)C(CO)O1` (stereo not given), for which the GI50 in the experiment on ACHN is 46.5 µM (inactive); in the experiment on BT-549, 48.4 µM (inactive); in the experiment with HCC 2998, 41.1 µM (inactive); in the experiment with HCT-116, 46.3 µM (inactive); in the experiment with HCT-15, 35.1 µM; in the experiment on HT-29 it was 22.6 µM (inactive). In addition, the GI50 was 16.6 µM (inactive) in the experiment with IGROV-1; 35.5 µM (inactive) in the experiment with MDA-MB-435; 28.1 µM (inactive) with Malme-3M; 33.2 µM (inactive) in the experiment on NCI-H522; 43.6 µM (inactive) in the experiment with NCI/ADR-RES; 14.9 µM (inactive) with RPMI-8226. The GI50 with RXF 393 is 95.9 µM (inactive); in the experiment with SF-539 it was 95.7 µM (inactive); with SK-MEL-28 it was 41.6 µM (inactive); with SK-MEL-5, 20.3 µM (inactive); with SNB-75 it was 51.2 µM (inactive); in the experiment with T47D, 52.2 µM (inactive). For the same compound, the GI50 with U-251 is 28.6 µM (inactive); in the experiment on UACC-257, 23.7 µM (inactive).

On to `CC(=O)O[C@H]1[C@@H](N2CCN(C)CC2)C[C@H]2[C@@H]3CC=C4C[C@@H](N5CCCC5)CC[C@]4(C)[C@H]3CC[C@@]21C`, for which the GI50 with ACHN was > 100 µM (inactive); in the experiment with BT-549 it was > 100 µM (inactive); in the experiment on HCC 2998, 17.2 µM (inactive); with HCT-116 it was 16.9 µM (inactive); in the experiment with HCT-15, 26.1 µM; with HT-29 it was 4.14 µM (inactive). The GI50 in the experiment with IGROV-1 was 68.4 µM (inactive); in the experiment on MDA-MB-435, 24.6 µM (inactive); in the experiment on Malme-3M, 26.1 µM (inactive); in the experiment on NCI-H522, 23.4 µM (inactive); with NCI/ADR-RES it was 98.4 µM (inactive); with RPMI-8226, 19.2 µM (inactive). Also, the GI50 in the experiment with RXF 393 was 22.2 µM (inactive); with SF-539 it was 15 µM (inactive); in the experiment on SK-MEL-28, 28.1 µM (inactive); in the experiment with SK-MEL-5 it was 25.9 µM (inactive); with SNB-75, > 100 µM (inactive); with T47D, > 100 µM (inactive). Besides, the GI50 is 50 µM (inactive) with U-251 and 21.1 µM (inactive) in the experiment on UACC-257.

As to `COC1=CC(=O)c2c(O)ccc(O)c2C1=O`, the GI50 was 16.5 µM (inactive) in the experiment on ACHN; 2.44 µM (inactive) with BT-549; 4.49 µM (inactive) in the experiment on HCC 2998; 4.6 µM (inactive) with HCT-116; 2.4 µM in the experiment with HCT-15; 1.72 µM (inactive) in the experiment on HT-29. The GI50 in the experiment with IGROV-1 was 18.1 µM (inactive); with MDA-MB-435 it was 0.659 µM (active); in the experiment on Malme-3M, 0.0607 µM (active); in the experiment with NCI-H522, 11.5 µM (inactive); in the experiment on NCI/ADR-RES, 19.8 µM (inactive); in the experiment on RPMI-8226, 9.2 µM (inactive). The GI50 is 16.6 µM (inactive) in the experiment on RXF 393; 5.19 µM (inactive) with SF-539; 1.92 µM (inactive) in the experiment with SK-MEL-28; 0.851 µM (active) with SK-MEL-5; 1.91 µM (inactive) in the experiment on SNB-75; 18.1 µM (inactive) in the experiment with T47D. The GI50 in the experiment on U-251 is 13.1 µM (inactive); in the experiment with UACC-257, 1.52 µM (inactive).

As for `CCOC(=O)C1C(=O)CC(O)(c2ccccc2)C(C(=O)OCC)C1c1ccc(OC)cc1` (stereo not given), the GI50 was 43.4 µM (inactive) in the experiment with ACHN; 34.7 µM (inactive) in the experiment on BT-549; 37.9 µM (inactive) in the experiment with HCC 2998; 4.94 µM (inactive) in the experiment with HCT-116; 19.4 µM in the experiment on HCT-15; 6.82 µM (inactive) in the experiment with HT-29. In addition, the GI50 was 20 µM (inactive) in the experiment with IGROV-1; 3.24 µM (inactive) in the experiment on MDA-MB-435; 26.2 µM (inactive) with Malme-3M; 5.69 µM (inactive) in the experiment on NCI-H522; 19.6 µM (inactive) in the experiment on NCI/ADR-RES; 13.8 µM (inactive) in the experiment with RPMI-8226. Also, the GI50 in the experiment with RXF 393 is 13.6 µM (inactive); with SF-539, 15.6 µM (inactive); with SK-MEL-28, 28.8 µM (inactive); with SK-MEL-5, 19.1 µM (inactive); with SNB-75, 0.479 µM (active); in the experiment with T47D it was 42.2 µM (inactive). Further, the GI50 with U-251 was 16 µM (inactive); in the experiment on UACC-257, 58.3 µM (inactive).

On to `Sc1nc(S)nc(Oc2ccc(Cl)c(Cl)c2)n1`, for which the GI50 is 48.3 µM (inactive) in the experiment on ACHN; 57.8 µM (inactive) in the experiment on BT-549; 17.8 µM (inactive) in the experiment with HCC 2998; 30.6 µM (inactive) in the experiment with HCT-116; 43.5 µM in the experiment on HCT-15; 49.5 µM (inactive) with HT-29. The GI50 in the experiment with IGROV-1 was > 56.1 µM (inactive); in the experiment on MDA-MB-435, > 100 µM (inactive); with Malme-3M, > 47.2 µM (inactive); in the experiment on NCI-H522, 18.5 µM (inactive); in the experiment with NCI/ADR-RES it was 38 µM (inactive); in the experiment on RPMI-8226, 9.95 µM (inactive). In addition, the GI50 was < 0.01 µM (active) in the experiment with RXF 393; > 44.8 µM (inactive) with SF-539; > 54 µM (inactive) in the experiment on SK-MEL-28; 24.5 µM (inactive) in the experiment on SK-MEL-5; 30.3 µM (inactive) in the experiment with SNB-75; 24.4 µM (inactive) in the experiment with T47D. Also, the GI50 in the experiment on U-251 is 44.8 µM (inactive); in the experiment on UACC-257 it was 43.7 µM (inactive).

In the case of `CC(C)(C)OC(=O)CN1CCN(CC(=O)N2CCN(C(=O)OCc3ccccc3)CC2)CCN(CC(=O)OC(C)(C)C)CCN(CC(=O)N2CCN(C(=O)OCc3ccccc3)CC2)CC1`, the GI50 in the experiment with ACHN was 7.73 µM (inactive); with BT-549, 3.94 µM (inactive); with HCC 2998 it was 1.69 µM (inactive); with HCT-116, 3.11 µM (inactive); with HCT-15, 6.15 µM; with HT-29, 0.318 µM (active). The GI50 in the experiment with IGROV-1 was 0.853 µM (active); in the experiment on MDA-MB-435, 2.13 µM (inactive); in the experiment on Malme-3M, 2.33 µM (inactive); in the experiment with NCI-H522 it was 0.785 µM (active); with NCI/ADR-RES it was 14.3 µM (inactive); in the experiment on RPMI-8226 it was 0.942 µM (active). The GI50 in the experiment on RXF 393 is 3.61 µM (inactive); in the experiment on SF-539, 2.17 µM (inactive); in the experiment on SK-MEL-28, 4.93 µM (inactive); in the experiment on SK-MEL-5, 1.71 µM (inactive); in the experiment on SNB-75, 1.35 µM (inactive); in the experiment with T47D, 3.12 µM (inactive). Besides, the GI50 in the experiment on U-251 is 1.7 µM (inactive); in the experiment with UACC-257, 2.54 µM (inactive).

Turning to `O=[N+]([O-])c1ccc(C(O)(C#CCN2CCCC2)c2ccccc2)cc1` (stereo not given), the GI50 in the experiment on ACHN is 56.2 µM (inactive); in the experiment with BT-549, 77.4 µM (inactive); with HCC 2998, 16.2 µM (inactive); in the experiment on HCT-116, 46.6 µM (inactive); with HCT-15, 60.7 µM; with HT-29, 17 µM (inactive). Also, the GI50 was 25.8 µM (inactive) in the experiment on IGROV-1; 24.1 µM (inactive) in the experiment on MDA-MB-435; 16.6 µM (inactive) in the experiment with Malme-3M; 22.4 µM (inactive) with NCI-H522; 69.5 µM (inactive) in the experiment on NCI/ADR-RES; 26.7 µM (inactive) with RPMI-8226. The GI50 in the experiment on RXF 393 is 57.9 µM (inactive); in the experiment with SF-539, 82 µM (inactive); in the experiment on SK-MEL-28, 17.6 µM (inactive); in the experiment with SK-MEL-5, 21 µM (inactive); in the experiment with SNB-75 it was 30.1 µM (inactive); with T47D, 28.5 µM (inactive). In addition, the GI50 was 38.9 µM (inactive) in the experiment with U-251 and 25.6 µM (inactive) in the experiment on UACC-257.

As for `O=C1c2c(O)ccc(O)c2C(=O)c2c(NCCNC(=O)C(O)C(O)C(O)C(O)CO)ccc(NCCNC(=O)C(O)C(O)C(O)C(O)CO)c21` (stereo not given), the GI50 with ACHN is < 0.01 µM (active); in the experiment with BT-549, 0.121 µM (active); with HCC 2998 it was 0.135 µM (active); with HCT-116 it was 0.0332 µM (active); in the experiment with HCT-15, 0.0138 µM; with HT-29, 0.03 µM (active). In addition, the GI50 was < 0.0383 µM (active) in the experiment on IGROV-1; 0.355 µM (active) with MDA-MB-435; 0.212 µM (active) in the experiment with Malme-3M; < 0.02 µM (active) in the experiment on NCI-H522; 0.133 µM (active) in the experiment on NCI/ADR-RES; < 0.01 µM (active) in the experiment on RPMI-8226. For the same compound, the GI50 is 0.221 µM (active) in the experiment with RXF 393; < 0.01 µM (active) in the experiment on SF-539; 0.211 µM (active) in the experiment on SK-MEL-28; 0.016 µM (active) in the experiment on SK-MEL-5; 0.0356 µM (active) in the experiment on SNB-75; 0.0102 µM (active) with T47D. The GI50 is 0.0109 µM (active) with U-251 and 1.11 µM (active) in the experiment on UACC-257.
